Laboratory results as given in US12528777B2, “Quinazolinones derivatives for treatment of non-alcoholic fatty liver disease, preparation and use thereof” (Council of Scientific and Industrial Research, priority 2020, dated 2026).

Tested on: ATGL
Experiment: Western blot of ATGL level in HepG2 cells
Type: cell-based
Design: key to Increase in ATGL level: + = slight or in insignificant; ++ = Moderate; +++ and ++++ = active; +++ and ++++ = active; +++++ = very active
Details: for Increase in ATGL level: HepG2 cells, score; for Increase in ATGL level / ATGL level in HepG2 cells: western blot; for EC50: fold increase of ATGL by densitometry, as % of 1.6 fold maximum with siCOP1, doses 10-5000 nM, read-out: EC50 (in-vitro); for ATGL level in HepG2 cells: 24 hours, 10 μM screening or 50 nM-5 μM dose dependent
Procedure: To select the compounds capable of inhibiting the ubiquitination of ATGL by COP1 by targeting the VP motif, confocal microscopy was performed with the provided molecules. If the compound was effective in inhibiting the interaction, there would be a reduction in the number of fat droplets in the cells after treatment. […] With this rationale in mind, HepG2 cells were induced to accumulate lipid droplets after treatment with 250 µM of oleate and 10 μM of the specific compounds were added. The potential of the compounds to bring about a reduction in the number of fat droplets was then checked by comparison with oleate induced cells by counting number of droplets of approximately 20 cells from each treatment and calculating the average number of lipid droplets of each cell. The selected compounds were then subjected to dose dependent treatments and the ones which could maintain its potency to reduce fat droplets at lower doses were then selected for western blot analysis. The compound which could reduce the number of fat droplets in the cells are expected to raise the levels of ATGL since they are likely to deter COP1 from ubiquitinating ATGL. This increase will be visible only in the protein level and gene expression is likely to remain unchanged since ubiquitination is a […] modification. Thus, western blot was performed to check ATGL levels in the cells with the selected molecules.
HepG2 cells were treated with the compounds 9, 10, 11, 17, 18, 23, 24, 115, 123, 127, 139,107, 171, 179, 73, 187, 211, 215, 219, 223, 232, 238, 241, 244, 258, 299, 308, and 333a, (10 μM for initial screening and 50 nM, 100 nM, 200 nM, 500 nM, 1 μM and 5 μM for dose dependent assays) for 24 hours. After removing media from the cells, the wells were washed with 1×PBS twice to remove any remnant media. Cells were then lysed in lysis buffer containing 50 mM Tris-HCl (pH 7.4), 100 mM NaCl, 1 mM EDTA, 1 mM EGTA, 1% Triton X-100 and protease inhibitor cocktail (Millipore, Billierica, MA, USA). Following centrifugation at 20,000 g for 20 minutes, the protein solution was extracted from the cells. Protein was estimated using Bradford assay. Bradford's reagent (BioRad) was diluted in 1:4 ratio in double distilled water. 2 μl of protein sample was added to 100 μl of the reagent and absorbance was measured at 595 nm. […] of protein was diluted in lysis buffer. 1× loading buffer diluted from 5× stock containing 250 mM Tris-HCl (pH 6.8), 10% SDS, 50% glycerol, 0.1% bromophenol Blue and 10% β-mercaptoethanol was added. The protein samples were then heated at 95° C. for 10 minutes, cooled and centrifuged at 12,000 g for 2 minutes prior to loading.
For western blotting, the proteins were resolved in 10% SDS PAGE (discontinuous buffer system). 1× running buffer containing SDS, Tris Base and Glycine was used to run the gel at 80V for approximately 2 hours. Transfer was done using PVDF membrane (Millipore) having pore size of 0.45 μm. 1× transfer buffer containing Tris-Base, Glycine and 20% methanol was used for wet transfer. Transfer was done at 90V for 3 hours. Following transfer, the PVDF membrane containing the proteins were washed in 1×PBST comprising of 1×PBS and 1% Tween 20 (Sigma Aldrich). The membrane was then incubated for 1 hour at room temperature in 5% skim milk powder to block the non-specific sites. Following multiple washes with 1×PBST to wash away any remaining blocking buffer, the required primary antibody (COP1 [Bethyl Laboraties], ATGL [Cell Signalling Technology] or Actin[Cell Signalling Technology]) prepared with 1×PBST, 1% Bovine Serum Albumin and 0.04% Sodium Azide was added to the membrane and incubated overnight at 4° C. The next day, the membrane was again washed multiple times with 1×PBST to remove any unbound primary antibody. The membrane was then incubated with goat anti-rabbit secondary antibody (Genei) for 1 hour at room temperature and washed again for multiple times with 1×PBST. […]

| EC50 | Compound | Increase in ATGL level | ATGL level in HepG2 cells |
| --- | --- | --- | --- |
| – | COCCn1cnc2ccc(NC(=O)Nc3cccc(C(C)=O)c3)c(-c3ccc(F)cc3)c2c1=O [Compound 47, 1-(3-acetylphenyl)-3-(5-(4-fluorophenyl)-3-(2-methoxyethyl)-4-oxo-3,4-dihydroquinazolin-6-yl)urea] | +++ | – |
| 434 nM | COCCn1c(CN2CCCC2)nc2ccc(NC(=O)Nc3cccc(C(C)=O)c3)cc2c1=O [Compound 232, 1-(3-acetylphenyl)-3-(3-(2-methoxyethyl)-4-oxo-2-(pyrrolidin-1-ylmethyl)-3,4-dihydroquinazolin-6-yl)urea] | +++ | increased ATGL level |
| – | COc1ccccc1-n1cnc2ccc(NC(=O)Nc3cccc(C(C)=O)c3)cc2c1=O [Compound 131, 1-(3-acetylphenyl)-3-(3-(2-methoxyphenyl)-4-oxo-3,4-dihydroquinazolin-6-yl)urea] | + | – |
| – | COCCn1cnc2ccc(NC(=O)Nc3cccc(C(C)=O)c3)c(C3CCNCC3)c2c1=O [Compound 62, 1-(3-acetylphenyl)-3-(3-(2-methoxyethyl)-4-oxo-5-(piperidin-4-yl)-3,4-dihydroquinazolin-6-yl)urea] | +++ | – |
| – | COCCn1cnc2ccc(NC(=O)Nc3ccccc3C(F)(F)F)cc2c1=O [Compound 39, 1-(3-(2-methoxyethyl)-4-oxo-3,4-dihydroquinazolin-6-yl)-3-(2-(trifluoromethyl)phenyl)urea] | ++ | – |
| – | COCCn1cnc2ccc(NC(=O)Nc3cccc(C(C)=O)c3)c(C3=CCNCC3)c2c1=O [Compound 60, 1-(3-acetylphenyl)-3-(3-(2-methoxyethyl)-4-oxo-5-(1,2,3,6-tetrahydropyridin-4-yl)-3,4-dihydroquinazolin-6-yl)urea] | + | – |
| – | COCCn1cnc2ccc(NC(=O)Nc3cccc(CNC(C)=O)c3)cc2c1=O [Compound 25, N-(3-(3-(3-(2-methoxyethyl)-4-oxo-3,4-dihydroquinazolin-6-yl)ureido)benzyl)acetamide] | + | – |
| – | COCCn1c(CN2CCN(C)CC2)nc2ccc(NC(=O)Nc3cccc(C(C)=O)c3)cc2c1=O [Compound 244, 1-(3-acetylphenyl)-3-(3-(2-methoxyethyl)-2-((4-methylpiperazin-1-yl)methyl)-4-oxo-3,4-dihydroquinazolin-6-yl)urea] | – | increased ATGL level |
| – | COCCn1cnc2ccc(NC(=O)Nc3cccc(C(C)=O)c3)c(C3=CCN(C(=O)OC(C)(C)C)CC3)c2c1=O [Compound 59, tert-butyl 4-(6-(3-(3-acetylphenyl)ureido)-3-(2-methoxyethyl)-4-oxo-3,4-dihydroquinazolin-5-yl)-5,6-dihydropyridine-1 (2H)-carboxylate] | + | – |
| 10.8 nM | COCCn1c(C2CCCC2)nc2ccc(NC(=O)Nc3cccc(C(C)=O)c3)cc2c1=O [Compound 127, 1-(3-acetylphenyl)-3-(2-cyclopentyl-3-(2-methoxyethyl)-4-oxo-3,4-dihydroquinazolin-6-yl)urea] | – | increased ATGL level |
| – | COCCn1c(C(=O)N2CCN(C)CC2)nc2ccc(NC(=O)Nc3cccc(C(C)=O)c3)cc2c1=O [Compound 333a, 1-(3-acetylphenyl)-3-(3-(2-methoxyethyl)-2-(4-methylpiperazine-1-carbonyl)-4-oxo-3,4-dihydroquinazolin-6-yl)urea] | – | increased ATGL level |
| – | CCC(COC)n1c(C)nc2ccc(NC(=O)Nc3cccc(C(C)=O)c3)cc2c1=O (stereo not shown) [Compound 281, 1-(3-acetylphenyl)-3-(3-(1-methoxybutan-2-yl)-2-methyl-4-oxo-3,4-dihydroquinazolin-6-yl)ureae] | ++ | – |
| – | CC(=O)c1cccc(NC(=O)Nc2ccc3ncn(CC(=O)Nc4ccccc4Br)c(=O)c3c2)c1 [Compound 259, 2-(6-(3-(3-acetylphenyl)ureido)-4-oxoquinazolin-3 (4H)-yl)-N-(2-bromophenyl)acetamide] | +++ | – |
